This passage reports AC50 results from patent publication US20250228847A1, “COMBINATION THERAPY FOR TREATING CANCER” (AstraZeneca AB, priority 2022, published 2025).

The test system of one assay is C4-2 cells. Put plainly: Cell proliferation / viability assay (Sytox Green, AC50), 7 days treatment. The note with it: C4-2 cell line (mCRPC, AR+, ARV7), single agent. The class given is cell-based. On the procedure:
(§1) The following cell lines were originally obtained from ATCC:
(§2) Cell line identification was validated using the CellCheck assay (IDEXX Bioanalytics, Westbrook, ME, USA). All cell lines were validated free of virus Mycoplasma contamination using the MycoSEQ assay (Thermo Fisher Scientific, Waltham, MA, USA) or STAT-Myco assay (IDEXX Bioanalytics). All cell lines were grown RPMI-1640 growth media (Corning 17-105-CV) supplemented with 10% fetal bovine serum (FBS) or, when indicated, 10% charcoal stripped FBS (ThermoFisher Scientific, 12676029) and 2 mM glutamine.
(§3) Cells in 384-well or 96-well plates were dosed using an Echo 555 (LabCyte, San Jose, CA, USA) or using the HP D300e Digital Dispenser (HP Life Science Dispensing), respectively. Live cell count pre- and post-treatment (7 days after treatment) was determined using CellTiter-Glo as per manufacturer's instructions (Promega, Madison, WI, USA; G7570).
(§4) Cell viability was determined with the Sytox Green assay as described in Davies 2012 and the AC50 calculated. The HSA (Highest Single Agent) Synergy Score was calculated according to Bernenbaum 1989.

The test system of another assay is LnCAP cells. The assay is described as above. The class given is cell-based. As to conditions: Homo sapiens, LnCAP cell line (mHSPC, AR+ T877A), single agent. How it is done: as §1, §2, §3, §4

Consider `CCc1cc2ncc(CN3CCN(c4ccc(C(=O)NC)nc4)CC3)cc2[nH]c1=O` [AZD5305, 5-{4-[(7-ethyl-6-oxo-5,6-dihydro-1,5-naphthyridin-3-yl)methyl]piperazin-1-yl}-N-methylpyridine-2-carboxamide], for which the AC50 with C4-2 cells and in the assay on LnCAP cells was > 1 µM throughout.
On to `C[C@]12CC[C@H](O)CC1=CC[C@@H]1[C@@H]2CC[C@]2(C)C(c3cccnc3)=CC[C@@H]12` [Abiraterone, abiraterone], for which the AC50 (in general, the midpoint of the concentration-response curve, whichever way the signal moves) stood at 2.81 µM in the assay on C4-2 cells and 4.94 µM in the assay with LnCAP cells.
